The record followed here is patent US9399636B2, “Substituted dipyridylamines and uses thereof” (Genentech, Inc., priority 2012, dated 2016).

SMILES strings stand for the structures.

The experiment deals with T1, DLK (Homo sapiens, UniProt Q12852).
T1 construct: N-terminally GST-tagged DLK (catalytic domain amino acid 1-520) (Carna Bioscience); GST (N); purchased Carna Bioscience
T1 sequence (Q12852 1-520): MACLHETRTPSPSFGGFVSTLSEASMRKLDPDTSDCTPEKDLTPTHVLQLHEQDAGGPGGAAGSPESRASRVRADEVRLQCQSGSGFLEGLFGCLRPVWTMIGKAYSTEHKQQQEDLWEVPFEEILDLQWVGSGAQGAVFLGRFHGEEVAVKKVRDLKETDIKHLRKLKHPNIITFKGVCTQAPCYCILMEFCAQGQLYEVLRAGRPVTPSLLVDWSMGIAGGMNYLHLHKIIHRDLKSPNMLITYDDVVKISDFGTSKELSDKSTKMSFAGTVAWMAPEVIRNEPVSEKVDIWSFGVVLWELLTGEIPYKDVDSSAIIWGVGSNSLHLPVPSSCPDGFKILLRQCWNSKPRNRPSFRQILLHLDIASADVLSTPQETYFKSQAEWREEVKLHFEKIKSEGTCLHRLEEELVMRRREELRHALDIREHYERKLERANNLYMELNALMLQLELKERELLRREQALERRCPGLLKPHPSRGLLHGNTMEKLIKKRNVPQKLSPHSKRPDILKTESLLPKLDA
The experiment can be described thus: DLK TR-FRET assay. It is filed as biochemical. Particulars: 5 nM GST-tagged DLK (catalytic domain amino acid 1-520), 40 nM HIS-tagged MKK4 K131M substrate, 30 μM ATP, 60 minutes. The method in brief:
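Phosphorylation of HIS-tagged MKK4 K131M (40 nM) by GST-DLK aa 1-520 (5 nM) at 30 μM ATP, pH 7.5, run 60 min at ambient temperature. Compound series started at 20 uM, diluted 1:3. Phospho-MKK4 detected by TR-FRET (Eu cryptate/D2 antibodies, 3 h, EDTA-containing buffer).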
`C[C@@H]1CCCN1c1cc(C2(C#N)CCOCC2)cc(Nc2cc(C#N)ccn2)n1` [Example 74, 2-[4-(4-Cyano-tetrahydro-pyran-4-yl)-6-((R)-2-methyl-pyrrolidin-1-yl)-pyridin-2-ylamino]-isonicotinonitrile] showed a Ki of 0.2 nM.
`CCc1cc(C2CCN(C3COC3)CC2)cc(Nc2cc(C(F)F)ccn2)n1` [Example 26, (4-Difluoromethyl-pyridin-2-yl)-(6-ethyl-1′-oxetan-3-yl-1′,2′,3′,4′,5′,6′-hexahydro-[4,4′]bipyridinyl-2-yl)-amine] returned a Ki of 21 nM.
Turning to `N#Cc1ccnc(Nc2cc(C3CCN(C4COC4)CC3)ccn2)c1` [Example 124, 2-(1′-Oxetan-3-yl-1′,2′,3′,4′,5′,6′-hexahydro-[4,4′]bipyridinyl-2-ylamino)-isonicotinonitrile], affinity was put at a Ki of 710 nM.
As to `N#Cc1ccnc(Nc2cc(C3(C#N)CCOCC3)cc(N3CC4CC4C3)n2)c1` (stereo not drawn) [Example 67, 2-[6-(3-Aza-bicyclo[3.1.0]hex-3-yl)-4-(4-cyano-tetrahydro-pyran-4-yl)-pyridin-2-ylamino]-isonicotinonitrile], the Ki stood at 0.4 nM.
Turning to `C[C@@H]1CCCN1c1cc(C2CCN(C3COC3)CC2)cc(Nc2cc(C#N)ccn2)n1` [Example 121, 2-[6-((R)-2-Methyl-pyrrolidin-1-yl)-1′-oxetan-3-yl-1′,2′,3′,4′,5′,6′-hexahydro-[4,4′]bipyridinyl-2-ylamino]-isonicotinonitrile], the affinity corresponds to a Ki of 0.2 nM. This Ki is about 2-fold lower than that of the compound before.
The compound `C[C@@H]1CCCN1c1cc(C2CCN(C3COC3)CC2)cc(Nc2cc(C(F)F)ccn2)n1` [Example 68, (4-Difluoromethyl-pyridin-2-yl)-[6-((R)-2-methyl-pyrrolidin-1-yl)-1′-oxetan-3-yl-1′,2′,3′,4′,5′,6′-hexahydro-[4,4′]bipyridinyl-2-yl]-amine] came in with an inhibition constant Ki of 0.3 nM.
For the compound `CC(=O)N1CCC(c2cc(Nc3cc(C(F)F)ccn3)nc(C3CC3)c2)CC1` [Example 57, 1-[6′-Cyclopropyl-2′-(4-difluoromethyl-pyridin-2-ylamino)-3,4,5,6-tetrahydro-2H-[4,4′]bipyridinyl-1-yl]-ethanone], the Ki turned out to be 3.5 nM.
Take `Cc1cc(C2CCNCC2)cc(Nc2cc(C#N)ccn2)n1` [Example 111, 2-(6-Methyl-1′,2′,3′,4′,5′,6′-hexahydro-[4,4′]bipyridinyl-2-ylamino)-isonicotinonitrile]: the inhibitory constant (Ki) was determined as 89 nM.
In the case of `N#Cc1ccnc(Nc2cc(C3(C#N)CCNCC3)cc(N3CC4CC4C3)n2)c1` (stereo not drawn) [Example 40, 6′-(3-Aza-bicyclo[3.1.0]hex-3-yl)-2′-(4-cyano-pyridin-2-ylamino)-2,3,5,6-tetrahydro-1H-[4,4′]bipyridinyl-4-carbonitrile] it was 0.17 nM; in that of `Cn1cc(-c2cc(C3CCOCC3)cc(Nc3cc(C(F)(F)F)ccn3)n2)cn1` [Example 122, [6-(1-Methyl-1H-pyrazol-4-yl)-4-(tetrahydro-pyran-4-yl)-pyridin-2-yl]-(4-trifluoromethyl-pyridin-2-yl)-amine], 0.4 nM; in that of `Cc1ccnc(Nc2cc(C3CCN(S(C)(=O)=O)CC3)cc(N3CCC[C@H]3C)n2)c1` [Example 136, [1′-Methanesulfonyl-6-((R)-2-methyl-pyrrolidin-1-yl)-1′,2′,3′,4′,5′,6′-hexahydro-[4,4′]bipyridinyl-2-yl]-(4-methyl-pyridin-2-yl)-amine], 25 nM.
In turn, `C[C@@H]1CCCN1c1cc(C2CCN(S(C)(=O)=O)CC2)cc(Nc2cc(C(F)(F)F)ccn2)n1` [Example 139, [1′-Methanesulfonyl-6-((R)-2-methyl-pyrrolidin-1-yl)-1′,2′,3′,4′,5′,6′-hexahydro-[4,4′]bipyridinyl-2-yl]-(4-trifluoromethyl-pyridin-2-yl)-amine] returned a Ki of 6.6 nM.
`N#CC1(c2cc(Nc3cc(C(F)F)ccn3)nc(N3CC4CC4C3)c2)CCOCC1` (stereo not drawn) [Example 52, 4-[2-(3-Aza-bicyclo[3.1.0]hex-3-yl)-6-(4-difluoromethyl-pyridin-2-ylamino)-pyridin-4-yl]-tetrahydro-pyran-4-carbonitrile] showed a Ki of 2 nM.
To `N#Cc1ccnc(Nc2cc(C3CCOCC3)cc(N3CC(F)(F)C3)n2)c1` [Example 104, 2-[6-(3,3-Difluoro-azetidin-1-yl)-4-(tetrahydro-pyran-4-yl)-pyridin-2-ylamino]-isonicotinonitrile] belongs 12.6 nM; to `FC1(F)CCN(c2cc(C3CN(C4COC4)C3)cc(Nc3cc(C(F)(F)F)ccn3)n2)C1` [Example 117, [6-(3,3-Difluoro-pyrrolidin-1-yl)-4-(1-oxetan-3-yl-azetidin-3-yl)-pyridin-2-yl]-(4-trifluoromethyl-pyridin-2-yl)-amine], 0.94 nM.
The compound `N#Cc1ccnc(Nc2cc(C3(C#N)CCOCC3)cc(N3CC(F)C3)n2)c1` [Example 46, 2-[4-(4-Cyano-tetrahydro-pyran-4-yl)-6-(3-fluoro-azetidin-1-yl)-pyridin-2-ylamino]-isonicotinonitrile] registered an inhibition constant (Ki) of 13 nM.
`N#Cc1ccnc(Nc2cc(C3CCOCC3)cc(Cl)n2)c1` [Example 78, 2-[6-Chloro-4-(tetrahydro-pyran-4-yl)-pyridin-2-ylamino]-isonicotinonitrile] showed a Ki of 3.1 nM. This Ki is about 4.2-fold lower than that of the compound before.
As to `N#CC1(c2cc(Nc3cc(C(F)F)ccn3)nc(N3CCCC3=O)c2)CCOCC1` [Example 49, 4-[2-(4-Difluoromethyl-pyridin-2-ylamino)-6-(2-oxo-pyrrolidin-1-yl)-pyridin-4-yl]-tetrahydro-pyran-4-carbonitrile], affinity was put at a Ki of 19 nM.
As for `CC(C)(C)OC(=O)N1CC(c2cc(Cl)nc(Nc3cc(C#N)ccn3)c2)C1` [Example 41, 3-[2-Chloro-6-(4-cyano-pyridin-2-ylamino)-pyridin-4-yl]-azetidine-1-carboxylic acid tert-butyl ester], the inhibition constant Ki turned out to be 56 nM.
Regarding `Cc1cc(C2CCN(CC(F)(F)F)CC2)cc(Nc2cc(C#N)ccn2)n1` [Example 72, 2-[6-Methyl-1′-(2,2,2-trifluoro-ethyl)-1′,2′,3′,4′,5′,6′-hexahydro-[4,4′]bipyridinyl-2-ylamino]-isonicotinonitrile], affinity was put at a Ki of 150 nM.
As for `CC(C)(C)OC(=O)N1CC(c2cc(Cl)nc(Nc3cc(C(F)F)ccn3)c2)C1` [Example 45, 3-[2-Chloro-6-(4-difluoromethyl-pyridin-2-ylamino)-pyridin-4-yl]-azetidine-1-carboxylic acid tert-butyl ester], affinity was put at a Ki of 48 nM.
